1 compound from US20250019371A1, “SMALL-MOLECULAR INHIBITORS FOR THE BETA-CATENIN/ B-CELL LYMPHOMA 9 PROTEIN-PROTEIN INTERACTION” (H. LEE MOFFITT CANCER CENTER AND RESEARCH INSTITUTE, INC., priority 2021, published 2025) can be followed below.

Test [1] concerns Axin2, cyclin D1 and LEF1 mRNA. The experiment in a line: qPCR of Wnt target genes in SW480 cells. In kind it is cell-based, human. Particulars: 24 h, HPRT spared. How it is done:
(§1) Quantitative Real Time PCR analysis. SW480 cells at 1×10^6 cells/mL were treated with inhibitors at different concentrations for 24 h. MDA-MB-231 cells at 1×10^6 cells/mL were treated with 100 ng/mL recombinant Wnt 3a (rmW3aL-010, Time BioScience) for 30 min, then the inhibitors at different concentration were added and incubated for 24 h. Total RNAs were extracted with TRIzol (15596026, Life Technologies), and the cDNA was synthesized with the superscript III first-strand kit (18080-051, Invitrogen). qPCR experiments were performed using the iQTM SYBR green supermix kit (170-8880, BIO-RAD) on an CFX96 Real Time System (BIO-RAD). The threshold cycle (CT) values were normalized to that of internal reference GAPDH. Experiments were performed in triplicate. The primer pairs are shown below

The subject of test [2] is β-catenin/BCL9 PPI. Nature of the test: Co-immunoprecipitation in HCT116 cells, β-catenin/BCL9. It counts as cell-based. Particulars: 24 h, full-length proteins. The method, then: C0-Immunoprecipitation (C0-IP) Experiments. HCT116 cancer cells with hyperactive 8-catenin signaling at 1×10^6 cells/mL were treated with different concentrations of the inhibitor for 24 h. Cells were then lysed in buffer containing 50 mM Tris, pH 7.4, 150 mM NaCl, 1% Nonidet P-40, 2 mM EDTA, and protease inhibitors. The cell lysates were pre-adsorbed to A/G plus agarose (sc-2003, Santa Cruz Biotechnology) at 4° C. for 1 h. Pre-adsorbed lysates were incubated with a specific primary antibody against β-catenin (610153, BD Biosciences) overnight at 4° C. A/G plus agarose was then added to the lysate mixture and incubated for 3 h. The beads were washed four times with the lysis buffer at 4° C. The bound protein was eluted by boiling in the SDS sample buffer and loaded onto 8% SDS polyacrylamide gel for electrophoretic analysis. Separated proteins were transferred onto nitrocellulose membranes for immunoblot analysis. The antibodies against BCL9 (ab37305, Abcam) and E-cadherin (610404, BD Biosciences), were incubated with the membranes, respectively. IRDye 680LT goat anti mouse IgG (827-11080, LiCOR) and IRDye 800CW goat anti rabbit IgG (926-32211, LiCOR) were used as the secondary antibodies. The images were detected by the Odyssey Infrared Imaging System (LiCOR). Experiments were performed in triplicate.

Test [3] concerns Wnt/β-catenin signaling (TOPFlash luciferase reporter). Nature of the test: TOPFlash luciferase reporter assay in SW480 cells. In kind it is cell-based. As to conditions: Homo sapiens, 24 h. The method, then:
(§2) The suppressing effect of the inhibitors on transactivation of Wnt/β-catenin signaling was evaluated by the TOPFlash/FOPFlash luciferase reporter assay. In the TOPFlash assay, the luciferase reporter has three wild-type Tcf4 binding sites, while in the FOPFlash assay Tcf4 binding sites were mutated. These tandem Tcf binding sites controls the expression ratio of the firefly luciferase in TOPFlash/FOPFlash assays. The renilla luciferase reporter construct (pCMV-RL) was used as the internal control to normalize luciferase reporter signals and eliminate any possible systematic errors. […] This selectivity trend is consistent with that from MTS cell viability assays. Therefore, further cell-based studies were focused on compound 30.
(§3) Cell Transfection and Luciferase Assay. FuGENE6 (E269A, Promega) 96 well plate format was used for the transfection of SW480 cells according to the manufacturer's instruction. SW480 cells were co-transfected with 60 ng the TOPFlash or FOPFlash firefly luciferase reporter gene and 40 ng renilla luciferase pCMV-RL normalization reporter gene. Cells were cultured in DMEM and 10% FBS at 37° C. for 24 h, and different concentrations of inhibitors or DMSO was added. After 24 h, the luciferase reporter activity was measured using the Dual-Glo system (E2940, Promega). […]
On the technique in general: In a reporter assay the amount or activity of a reporter protein is the signal.

Test [4] relates to Axin2 and cyclin D1 protein expression. The experiment in a line: Western blot of Wnt target genes in SW480 cells. It counts as cell-based. Particulars: 24 h. How it is done: Western Blotting of Wnt Target Genes. SW480 cells at 1×10^6 cells/mL were treated with different concentrations of inhibitors for 24 h. Cells were lysed in buffer containing 50 mM Tris, pH 7.4, 150 mM NaCl, 1% Nonidet P-40, 2 mM EDTA, and protease inhibitors. After centrifugation at 12,000 rpm for 20 min at 4° C., the supernatant was loaded onto an 8% SDS polyacrylamide gel for electrophoretic analysis. Separated proteins were transferred onto nitrocellulose membranes for immunoblot analysis. The antibodies against Axin2 (MA5-15015, Thermo Fisher), cyclin D1 (sc-853, Santa Cruz Biotechnology), and β-tubulin (sc-55529, Santa Cruz Biotechnology) were incubated with the membranes overnight at 4° C., respectively. IRDye 680LT goat anti-mouse IgG (827-11080, LiCOR) or IRDye 800CW goat anti-rabbit IgG (827-08365, LiCOR) was used as the secondary antibody. The images were detected by the Odyssey Infrared Imaging System (Odyssey Fc, LiCOR). Experiments were performed in duplicate.
In general terms: In western blotting, separated proteins are transferred to a membrane and probed.

In test [5] the test system is FOPFlash luciferase reporter (mutated Tcf4 binding sites). The experiment in a line: FOPFlash luciferase reporter assay in SW480 cells. Particulars: same concentration range as TOPFlash. It counts as cell-based. How it is done: as §2, §3
In test [6] the test system is Axin2, cyclin D1 and LEF1 mRNA. The experiment in a line: qPCR of Wnt target genes in Wnt 3a-activated MDA-MB-231 cells. Particulars: 24 h, HPRT spared. In kind it is cell-based, human. How it is done:
as §1
(In general: In qPCR the cycle at which signal appears reflects the starting amount.)

SMILES strings stand for the structures.

In the case of `CC(C)(Oc1cccc(N2CCC[C@H](C(=O)N(Cc3ccc(-c4cccs4)cc3)C3CC3)C2)c1)C(=O)NS(=O)(=O)c1ccc(C#N)cc1` [Compound 30, (S)-((4-Cyanophenyl)sulfonyl) (2-(3-(3-(cyclopropyl(4-(thiophen-2-yl)benzyl)carbamoyl)piperidin-1-yl)phenoxy)-2-methylpropanoyl)amide], the “transcription of Wnt target genes Axin2, cyclin D1, LEF1 (qPCR)” value in test [1] and in test [6] was “dose-dependently inhibited transcription of these Wnt target genes” in each case. Moreover, the “disruption of β-catenin/BCL9 PPI in cells (co-IP)” value in test [2] was “disrupted the β-catenin/BCL9 PPI in a dose-dependent manner”. In test [3], this compound registered an IC50 of 6.6 µM. Further, the “protein expression levels of Axin2 and cyclin D1 (Western blot)” value in test [4] is recorded as “dose-dependently decreased”. In addition, the “effect on FOPFlash luciferase reporter activity” value in test [5] is given as “did not show any inhibitory effect”.

By IC50 is commonly meant the point on the concentration scale where inhibition reaches its midpoint. A higher IC50 goes with lower potency.
